Here are results for two molecules from patent US4960698A, “Process for producing L-654,040, antibacterial agent” (Merck & Co., Inc., priority 1989, dated 1990).

Values after ≈ are worked out from the molar mass of the structure shown. “Also recorded” adds a separate entry of the source.

For one series, the system named is Eubcterium limosum 3344. Briefly: agar dilution MIC, anaerobic, Wilkens-Chalgren agar. In kind it is cell-based. Particulars: 10^6 cfu/spot, 35° C., 48 hours. As for the experimental part: (a) Wilkens-Chalgren agar was used instead of antagonist-free medium (Roche);
(b) The inoculum/spot was about 10^6 instead of about 10^4 ;
(c) The incubation period was for 48 hours, not 24 hours; and
(d) Incubations were performed under anaerobic conditions.
*Agar dilution assay, multipoint inoculator, WilkensChalgren agar,
inoculum 10^6 cfu/spot, incubation at 35° C. for 48 hours.

Series [1] has as its system Bordetella bronchiseptica (3771). The series can be described thus: protection and survival of infected mice. The conditions noted are these: intraperitoneal, 160 mg/kg ×2.
The next series concerns Pasteurella multocida. The series can be described thus: combined therapy with erythromycin in infected mice. Particulars: intraperitoneal, vs erythromycin alone.
In another series the test system is Staph. aureus 2865. The series can be described thus: agar dilution MIC, antagonist-free medium (Roche). Particulars: Table II.
A further series relates to numerous microorganisms. The series can be described thus: in vitro antibacterial potency (general statement). The class given is cell-based.
The nature of a further series: solubility in water. Particulars: water solutions for injection.
A further series has as its system E. coli DC2 4353. Briefly: agar dilution MIC, antagonist-free medium (Roche). Particulars: E. coli permeability mutant, Table II.
For series [2], the system named is Pasteurella multocida (4678). Briefly: protection and survival of infected mice. The conditions noted are these: intraperitoneal; for survival time: 160 mg/kg ×2.
The conditions of series [3]: mouse, in vivo.

As to `CO[C@@]1(NC(=O)Cc2cccs2)C(=O)N2C(C(=O)O)=C(COC(N)=O)CS[C@@H]21` [CEFOXITIN, Cefoxitin, reference compound], in the series with Eubcterium limosum 3344, the lowest concentration to inhibit growth (MIC) was 1 µg/mL (≈ 2.34 µM).

Regarding `C[C@H](CNC(=O)[C@H]1N=C(c2cccc(O)c2O)O[C@@H]1C)C(=O)N[C@@H]1CCCN(O)C1=O` [L-654,040], the survival time entry in series [1] (160 mg/kg) was “prolongation of survival time was observed”; in series [1] (listed as L-654.040, 160 mg/kg), “did prolong the survival time”; in series [2] (160 mg/kg) it was “prolongation of survival time was observed; also recorded: increases survival time”; in [2] (listed as L-654.040, 160 mg/kg), “did prolong the survival time”. Also, the “efficacy of combined therapy with erythromycin” value in the series with Pasteurella multocida was “slightly more effective than erythromycin alone but not to a degree considered to be synergistic”. In addition, the sensitivity of strain entry in the series with Staph. aureus 2865 and in the series with E. coli DC2 4353 was “sensitive” throughout. For the same molecule, inhibition of growth in the series on Eubcterium limosum 3344 (MIC) required 128 µg/mL (≈ 295 µM). Besides, the potency in vitro entry in the series with numerous microorganisms was “showing potency in vitro against numerous microorganisms”. The “solubility in water (in words)” value in the series “solubility in water” is given as “limited solubility”. Besides, the “statistical significance of prolonged survival (in words)” value in series [2] is listed as “statistically significant at one level in two Pasteurella tests”. In series [3], the “tolerability in uninfected mice” value is “tolerated by uninfected mice”.
